We go through one compound from US5482964A, “Substituted phenoxyhydroxypropyl amines as central nervous system agents” (Warner-Lambert Company, priority 1994, dated 1996).

The test system of series [1] is male CF-1 mice. In words: Maximal electroshock (MES) anticonvulsant screen in mice. The format is in vivo. On the technique in general: The maximal electroshock test induces tonic seizures with an electrical stimulus.
Description: All experiments were conducted on male CF-1 mice (Charles River Laboratory, Portage, Mich.). The mice weighed 20 to 35 g and were allowed free access to food and water prior to testing. The compounds were dissolved in various solutions of up to 50% organic solvents and 50% buffered solutions. All doses were injected intravenously (IV) in a volume of 1.0 mL per 100 g of body weight using a 25-gauge needle and a 1 cc syringe. Doses of the compounds were calculated as the free base.
Maximal electroshock was administered via corneal electrodes with an electroshock apparatus (Wahlquist Instrument Company) immediately following the inverted screen test. The stimulus consisted of a 50 mA current (100 mA peak-to-peak) and duration of 0.2 seconds. The protocol for the MES assay involved groups of five mice per dose at each time period postdose. […] The mice were sacrificed with carbon dioxide immediately after MES. Anticonvulsant data were recorded as the number of mice protected from MES out of five. Two out of five were considered active.
Series [2] addresses T1, P-type calcium channels (Rattus norvegicus, UniProt P54282).
T1 construct: Male rats (Sprague-Dawley, 200-220 g) were killed by decapitation and neocortices were isolated by blunt dissection; from tissue; host or cells: Sprague-Dawley rat neocortex, crude synaptosomes
In words: Inhibition of depolarization induced Ca++ flux (CaFl), 45Ca++ influx into rat neocortical synaptosomes. To be noted: 30 mM KCl stimulated 45Ca flux, rat neocortical synaptosomes. The format is biochemical. The source says:
A large influx of calcium from extracellular compartments into neurons is observed after opening of voltage-dependent calcium channels. The opening of calcium channels may be induced by a K^+ -stimulated depolarization of neuronal membranes. A crude synaptosomal preparation contains small vesicles surrounded by neuronal membranes, and it is feasible to study the opening of voltage-operated calcium channels in such a preparation. In the test described below, the influx of ^45 Ca^++ into rat synaptosomes is studied under depolarized conditions. The effect of the test compounds on the depolarization induced calcium update can thus be studied. The calcium influx measured in this assay is believed to represent the P-type calcium channels.
Male rats (Sprague-Dawley, 200-220 g) were killed by decapitation and neocortices were isolated by blunt dissection. White matter was dissected away and the gray matter was placed in cold sucrose buffer (composition (mM): sucrose 320, TRIS base 5.0, EDTA 0.1; adjusted to pH 7.3 with HCl). The tissue was homogenized using 5 strokes at 500 rpm followed by 4 strokes at 800 rpm. The homogenate was centrifuged at 1075 g for 10 minutes. The pellet was discarded and the supernatant was centrifuged at 15800 g for 10 minutes at 4° C., and the supernatant was discarded. The final pellet was resuspended in incubation buffer and kept on ice.
Fifty-microliter aliquots of neocortical synaptosome suspension were preincubated for 5 minutes at 25° C. in 400 μL of incubation buffer containing drug or control solvent. The synaptosomes were then exposed to a tracer quantity of ^45 CaCl2 (1 μCi/mL) in combination with either 3 mM KCl (basal calcium flux or 30 mM KCl (stimulated calcium flux). The calcium flux was terminated by filtration over glass-fiber filters (GFB) using a Skatron 12-well harvester; filters were washed with a pressurized, continuous flow of 3 mL wash buffer (composition (mM): choline chloride 140, EGTA 3, HEPES 22; adjusted to pH 7.3 with TRIS base). Radioactivity of the filters was measured by scintillation counting. Basal calcium flux was subtracted from stimulated calcium flux in both control- and drug-treated conditions, and data were expressed as percent inhibition of the adjusted control response.

Series [3] deals with sodium channels. To be noted: rat neocortical membranes, 5 nM [3H]batrachotoxinin, Cheng-Prusoff; read-out: BTX Binding.

For orientation: IC50 means the concentration at which inhibition is half-maximal.

T1 sequence (P54282 whole entry): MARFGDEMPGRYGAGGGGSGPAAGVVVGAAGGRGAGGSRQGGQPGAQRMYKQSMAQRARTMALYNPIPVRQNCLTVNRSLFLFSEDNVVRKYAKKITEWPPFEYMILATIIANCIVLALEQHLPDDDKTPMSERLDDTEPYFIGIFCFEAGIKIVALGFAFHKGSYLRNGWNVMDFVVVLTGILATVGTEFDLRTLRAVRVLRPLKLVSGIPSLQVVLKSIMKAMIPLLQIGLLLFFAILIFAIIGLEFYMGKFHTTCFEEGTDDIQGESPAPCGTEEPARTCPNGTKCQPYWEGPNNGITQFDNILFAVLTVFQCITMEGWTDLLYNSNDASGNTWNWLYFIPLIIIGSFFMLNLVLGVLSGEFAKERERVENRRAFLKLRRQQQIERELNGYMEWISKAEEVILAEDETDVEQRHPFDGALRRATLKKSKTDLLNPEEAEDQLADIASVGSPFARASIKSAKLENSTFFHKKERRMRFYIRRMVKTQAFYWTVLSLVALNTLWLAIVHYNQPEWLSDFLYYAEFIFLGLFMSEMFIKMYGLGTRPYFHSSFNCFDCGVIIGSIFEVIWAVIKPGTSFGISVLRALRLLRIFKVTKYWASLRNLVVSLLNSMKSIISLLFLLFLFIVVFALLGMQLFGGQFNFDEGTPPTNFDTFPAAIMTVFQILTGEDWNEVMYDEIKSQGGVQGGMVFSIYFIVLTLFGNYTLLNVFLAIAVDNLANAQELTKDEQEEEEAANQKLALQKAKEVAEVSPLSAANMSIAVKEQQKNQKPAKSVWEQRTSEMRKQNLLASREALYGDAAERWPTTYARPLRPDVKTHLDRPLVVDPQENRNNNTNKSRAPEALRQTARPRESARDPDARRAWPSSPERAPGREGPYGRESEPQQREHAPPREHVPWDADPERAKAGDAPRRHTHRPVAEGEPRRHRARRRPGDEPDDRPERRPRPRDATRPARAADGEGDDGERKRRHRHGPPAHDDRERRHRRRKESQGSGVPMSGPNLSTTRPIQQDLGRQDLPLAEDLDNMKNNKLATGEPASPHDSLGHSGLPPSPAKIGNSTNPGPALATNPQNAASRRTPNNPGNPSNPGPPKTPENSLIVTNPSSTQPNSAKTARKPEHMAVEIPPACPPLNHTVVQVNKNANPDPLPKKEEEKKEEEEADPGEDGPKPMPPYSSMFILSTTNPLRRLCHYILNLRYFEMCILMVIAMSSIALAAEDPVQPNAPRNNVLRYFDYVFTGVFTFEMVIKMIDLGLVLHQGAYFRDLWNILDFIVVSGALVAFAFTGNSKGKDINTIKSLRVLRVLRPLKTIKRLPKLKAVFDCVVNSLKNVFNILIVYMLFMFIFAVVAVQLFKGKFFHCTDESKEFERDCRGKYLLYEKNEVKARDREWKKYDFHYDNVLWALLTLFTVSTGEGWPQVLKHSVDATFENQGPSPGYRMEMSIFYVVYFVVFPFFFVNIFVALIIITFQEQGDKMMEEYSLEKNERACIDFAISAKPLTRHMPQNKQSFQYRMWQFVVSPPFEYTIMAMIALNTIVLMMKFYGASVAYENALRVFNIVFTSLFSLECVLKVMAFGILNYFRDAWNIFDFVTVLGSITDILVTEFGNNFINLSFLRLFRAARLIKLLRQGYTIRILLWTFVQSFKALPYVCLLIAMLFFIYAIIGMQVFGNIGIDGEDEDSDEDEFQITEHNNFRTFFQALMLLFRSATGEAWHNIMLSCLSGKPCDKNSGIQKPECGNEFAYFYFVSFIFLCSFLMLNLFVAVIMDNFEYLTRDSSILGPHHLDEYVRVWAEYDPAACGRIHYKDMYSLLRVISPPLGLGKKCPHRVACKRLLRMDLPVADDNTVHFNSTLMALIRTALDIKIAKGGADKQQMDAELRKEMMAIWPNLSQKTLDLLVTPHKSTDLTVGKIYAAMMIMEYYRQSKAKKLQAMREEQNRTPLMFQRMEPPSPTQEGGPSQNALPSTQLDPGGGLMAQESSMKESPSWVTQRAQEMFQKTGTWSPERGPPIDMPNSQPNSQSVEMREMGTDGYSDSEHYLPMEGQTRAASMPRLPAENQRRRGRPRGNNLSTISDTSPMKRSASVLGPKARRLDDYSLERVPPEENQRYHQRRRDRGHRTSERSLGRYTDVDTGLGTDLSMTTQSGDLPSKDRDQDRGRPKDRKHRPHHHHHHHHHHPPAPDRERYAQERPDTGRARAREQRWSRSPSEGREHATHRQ

Turning to `COc1ccc(CCN(C)CC(O)COc2ccc(C3CCCCC3)cc2C)cc1OC` (centres unmarked) [Example 24, 1-(4-Cyclohexyl-2-methylphenoxy)-3-{[2-(3,4-dimethoxyphenyl)-ethyl]-methylamino}-propan-2-ol], the “MES, number of mice protected” value in series [1] (1 mg/kg IV, 3 min postdose) is on record as 0/5; in series [1] (1 mg/kg IV, 30 min postdose), 0/5; in series [1] (3 mg/kg IV, 3 min postdose) it was 0/5; in series [1] (3 mg/kg IV, 30 min postdose), 1/5; in series [1] (3 mg/kg IV, 1 hr postdose), 1/5; in series [1] (10 mg/kg IV, 3 min postdose), 4/5. The “MES, number of mice protected” value in series [1] (10 mg/kg IV, 30 min postdose) is given as 4/5; in series [1] (10 mg/kg IV, 1 hr postdose) it was 3/4. In addition, the “Animals died in this group” value in series [1] (10 mg/kg IV, 1 hr group) is recorded as 1/5. Further, in series [2], the IC50 came out at 2.1 µM. For the same compound, in series [3], the Ki amounted to 0.31 µM.
